Laboratory results published in US11040958B2, “Triazole antimicrobial derivative, pharmaceutical composition and use thereof” (priority 2017, dated 2021).

Key:
[1] = Pharmacokinetics after single gastrointestinal (gavage) administration in rats (plasma voriconazole); type: in vivo; conditions: SD rats, 2.5 mg/kg (calculated as voriconazole)
Procedure: Dosing volume for administration: 10 ml/kg
Solvent medium for administration: except for the positive voriconazole group using CMC-Na, the other groups using normal saline
Route of administration: gavage

[2] = In vitro metabolic stability in human intestinal S9; type: in vitro ADME; conditions: 37°C, S9 1 mg/mL, compound 10 μM, NADPH regeneration system
Procedure: (§1) The two reaction systems were set up three samples in parallel, while each sample was taken in an amount of 100 μL at 1 min, 2 mins, 5 mins, 15 mins, and 30 mins after the reaction, added to the centrifuge tube containing 400 μL of 0° C. pre-cooled internal standard working fluid and terminated the reaction. The sample was mixed by vortex for 1 min, centrifuged at 10,000×g for 10 mins in a 4° C. pre-cooled high-speed centrifuge. The supernatant was taken for HPLC detection. […] Concentration of mother liquor of compounds: 1 mM […] [table]

[3] = In vitro metabolic stability in rat plasma; type: in vitro ADME; conditions: 37°C, compound 10 μM
Procedure: The two reaction systems were set up three samples in parallel, while each sample was taken in an amount of 100 μL at 1 min, 2 mins, 5 mins, 15 mins, and 30 mins after the reaction, added to the centrifuge tube containing 400 μL of 0° C. pre-cooled internal standard working fluid and terminated the reaction. The sample was mixed by vortex for 1 min, centrifuged at 10,000×g for 10 mins in a 4° C. pre-cooled high-speed centrifuge. The supernatant was taken for HPLC detection. […] Concentration of mother liquor of compounds: 1 mM […]

[4] = tested on: Candida albicans ATCC10231; assay: Systemic fungal infection in mice, administration by gavage, survival; type: in vivo; conditions: ICR mice, 5 mg/kg (calculated as voriconazole) once daily for 5 days
Procedure: ICR mice, weighing 18-22 g, male, provided by the Hubei Experimental Animal Center.
The standard strain Candida albicans was purchased from the American Type Culture Collection, and the strain number was ATCC10231.
Before the experiment, a small amount of Candida albicans was picked from the SDA medium preserved at 4° C. by inoculation circle, inoculated into 1 ml of YPD culture medium, and cultured at 30° C. while being shaken at 200 rpm for 16 hours to make the fungus in the late stage of exponential growth. Blood cell counting plate was used to count, and the concentration of the broth was adjusted to 1*10^3−5*10^3 CFU/ml with RPMI1640 medium. The Candida albicans monoclone on the SDA plate was picked, inoculated into 1 ml YPD medium, cultured at 35° C., 200 rpm for 16 hours to the late exponential growth phase, 1% of which was then inoculated in fresh medium for 6 hours, centrifuged at 1000×g for 5 mins, washed three times with saline until the supernatant was colorless, while hemocytometer was used to count. The cell concentration was adjusted to 5*10^6/ml. The tail vein injection of 0.1 ml/10 g was carried out to cause a systemic fungal infection in mice. The mice were randomized into groups of 10 each. Voriconazole used was in the form of a suspension prepared with CMC-Na (Shanghai Panhong Chemical Technology Co., Ltd.), while other tested drugs were dissolved in saline and sonicated until clarified for administration. After establishing a systemic fungal infection model in mice for 2 hours, each group was administered by gavage with 5 mg/kg (calculated as voriconazole) drug, with the volume for administration of 0.1 ml/10 g. The mice in the model group were administered 0.1 ml/10 g of 0.9% sodium chloride solution, once daily, for 5 consecutive days. The death situation of the mice was inspected and the survival time was recorded. After a total of 7 days of observation, all dead mice were treated with fire using ethanol.

[5] = In vitro metabolic stability in rat intestinal S9; type: in vitro ADME; conditions: 37°C, S9 1 mg/mL, compound 10 μM, NADPH regeneration system
Procedure: as §1

[6] = In vitro metabolic stability in human plasma; type: in vitro ADME; conditions: 37°C, compound 10 μM
Procedure: The two reaction systems were set up three samples in parallel, while each sample was taken in an amount of 100 μL at 1 min, 2 mins, 5 mins, 15 mins, and 30 mins after the reaction, added to the centrifuge tube containing 400 μL of 0° C. pre-cooled internal standard working fluid and terminated the reaction. The sample was mixed by vortex for 1 min, centrifuged at 10,000×g for 10 mins in a 4° C. pre-cooled high-speed centrifuge. The supernatant was taken for HPLC detection.

[7] = Solid stability test (25°C, RH 60%, 30 days); type: physicochemical; conditions: 25°C±2°C, relative humidity 60%±2%
Procedure: Experimental conditions: 25° C.±2° C., relative humidity 60%±2%
Experimental instrument: Agilent 1260 HPLC; chamber for stability test
Experimental method: each compound of the present disclosure was packaged (the inner packaging material was a penicillin bottle; the outer packaging material was a double-layer aluminum foil bag, and a desiccant was added inside and outside the package), placed in the chamber for stability test, at a temperature of 25° C.±2° C. and a relative humidity of 60%±2%. The degradation situation of the compounds for 30 days was examined. The contents of total impurities before and after 30 days of each compound were compared and the results were as follows: […]

[8] = Solubility test in deionized water (HPLC, external calibration); type: physicochemical; conditions: deionized water, 25±2°C
Procedure: Experimental condition: 25±2° C.
Dissolving medium: deionized water
Experimental method: 1 mg voriconazole and appropriate amount of each compound were weighed, placed in 1 ml deionized water separately, shaken vigorously for 30 s every 5 mins for 30 mins.

[9] = Pharmacokinetics after single intravenous administration in rats (plasma voriconazole); conditions: rat, in vivo, 2.5 mg/kg
In short: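 SD rats (180–220 g, 3 male/3 female per group) given single tail-vein dose of 2.5 mg/kg (as voriconazole). Plasma voriconazole measured in blood sampled at multiple time points post-dose.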

SMILES | AUClast [1] [ng·h/mL] | Cmax [1] [ng/mL] | T1/2 [1] [min] | Human intestinal S9 T1/2 [2] [min] | Rat plasma T1/2 [3] [min] | survival rate of mice, day 1 [4] [%] | survival rate of mice, day 2 [4] [%] | survival rate of mice, day 3 [4] [%] | survival rate of mice, day 4 [4] [%] | survival rate of mice, day 5 [4] [%] | survival rate of mice, day 6 [4] [%] | survival rate of mice, day 7 [4] [%] | Rat intestinal S9 T1/2 [5] [min] | Human plasma T1/2 [6] [min] | Content increase of total impurity (25° C., placed for 30 days) [7] [%] | Solubility [8] [mg/mL] | AUClast [9] [ng·h/mL] | T1/2 [9] [min]
CC(OC(=O)N(C)c1ncccc1COC(=O)[C@@H](N)CCCN)[n+]1cnn(C[C@](O)(c2ccc(F)cc2F)[C@@H](C)c2ncncc2F)c1.Cl.Cl.Cl.[Br-] (stereo partly shown) [QR16008] | 8745 ± 2365 | 825 ± 256 | 159 ± 34.8 | 30.25 ± 4.90 | 10.58 ± 2.95 | 100 | 100 | 100 | 100 | 90 | 80 | 80 | 32.52 ± 7.82 | 9.49 ± 1.31 | 1.05 | >50 | – | –
CC(OC(=O)N(C)c1ncccc1COC(=O)CN(C)C)[n+]1cnn(C[C@](O)(c2ccc(F)cc2F)[C@@H](C)c2ncncc2F)c1.Cl.Cl.[Cl-] (stereo partly shown) [QR16045] | 7859 ± 2256 | 562 ± 158 | 155 ± 52.8 | 32.97 ± 8.45 | 8.88 ± 0.55 | 100 | 100 | 90 | 90 | 90 | 90 | 80 | 27.85 ± 6.58 | 8.95 ± 0.12 | 2.23 | >50 | 8586 ± 1856 | 164 ± 46.8
